The NIST ThermoML archive (doi:10.1021/je060291c)

Assay: wn = mass fraction of the nth substance listed
Details: Liquid, Pulse-echo method, w2 = 0.49

CC(F)(F)F [1,1,1-trifluoroethane] + FC(F)C(F)(F)F
speed of sound [m/s]
Details	253.22 K	258.15 K	265.62 K
1150 kPa	–	574.9	–
1160 kPa	598.8	–	–
1170 kPa	–	575.3	539.5
1190 kPa	–	575.7	–
1210 kPa	–	–	540.1
1260 kPa	599.7	576.3	540.5
1380 kPa	600.9	577.6	541.7
1500 kPa	602	578.8	543
1630 kPa	603.1	580	544.3
1750 kPa	604.2	581.2	545.7
2010 kPa	606.4	583.4	548.3
2250 kPa	608.7	585.8	550.8
2510 kPa	610.9	588.1	553.3
2750 kPa	613.1	590.3	555.9
3010 kPa	615.1	592.6	558.4
3500 kPa	619.3	597.1	563.3
4000 kPa	623.7	601.5	568.3
4500 kPa	627.9	606.1	572.9
5000 kPa	631.9	610.4	577.7
6010 kPa	639.9	618.6	586.7
7010 kPa	647.5	626.7	595.3
8000 kPa	655.1	634.7	603.7
9000 kPa	662.6	642.2	612.1
10000 kPa	669.8	649.7	620.3
12000 kPa	683.6	664	635.3
14000 kPa	697	677.9	–
16010 kPa	709.7	691.3	–
18000 kPa	722.2	704.1	–
20000 kPa	734.3	716.5	–
23000 kPa	751.6	734.2	–
26000 kPa	768.1	751.1	–
29010 kPa	783.7	767.3	–
32000 kPa	798.4	782.5	–
35000 kPa	812.8	797.1	–
40000 kPa	835.8	820.8	–
45000 kPa	857.8	843.3	–
50000 kPa	878.9	864.3	–
55000 kPa	899	884.5	–
60000 kPa	918.8	904.1	–
65000 kPa	937.2	923.1	–
